Assay results published in a melting point compilation (Tetko et al.; mined from patent text by program, amines drawn as free bases though some values may be those of a salt).

melting point [°C]	SMILES
124 to 125	COC(=O)Cc1ccc(Sc2ccccc2C(=O)N(C)C)c([N+](=O)[O-])c1
150 to 152	NCc1ccc(-c2cnc(N3CCN(C4CC4)CC3)nc2)cc1
132 to 133	COCc1cc2c(s1)CCc1cc(=O)n(-c3ccc(C)cc3)nc1-2
152 to 153	CCOC(=O)C1(F)C(=O)NC(=O)NC1O/N=C\c1ccco1 (stereo not given)
195	O=C(Nc1cccc2c1C(=O)OC2=O)c1ccc(Cl)s1
153 to 155	COc1ccc(CCNC(=O)CCCCC(=O)NCCc2ccc(OC)c(OC)c2CCc2cccc(OC)c2)cc1
296 to 301	NS(=O)(=O)c1cc2[nH]c(CCl)nc2cc1Cl
97 to 99	CSc1ccc(C(=O)C(C#N)C(=O)C(C)(C)C)c(Cl)c1 (stereo not given)
192 to 194	CCCc1c(OCCCSc2ccc3c(=O)cc(C(=O)O)[nH]c3c2CCC)ccc(C(C)=O)c1O
84 to 86	C=CCC1Oc2ccccc2-c2c(OC)cc3c(c21)C(C)=CC(C)(C)N3 (stereo not given)
162	CCOC(=O)N1CCC(c2noc(-c3cc(Cl)c(N)c4c3OCC4)n2)CC1
122 to 123	CC(c1ccc(-c2ccccc2)c(F)c1)c1cc(N)on1 (stereo not given)
213 to 215	COc1ccc(C(=O)N2C(C)Cc3ccccc3C2CNC(=O)c2cc(OC)c(OC)c(OC)c2)cc1 (stereo not given)
155 to 157	CC(C)(Oc1ccc(CCC(=O)c2ccc(-c3ccc(Br)cc3)s2)c(Cl)c1Cl)C(=O)O
131 to 132	CN1C(=O)c2ccc(-c3ccc(Cl)cc3)cc2C1=O
120	N#Cc1ccc(C(=O)C=Cc2ccccc2)cc1
201	CN1CCC(OC(c2cccc(O)c2)c2nc3ccccc3s2)CC1 (stereo not given)
56.5 to 58	CN(C)CCOC(=O)c1cccc2cc(-c3ccccc3)oc12
157 to 160	COC1SC=C(C)NC1=O (stereo not given)
> 250	N=C(N)Nc1nc2c(s1)CCN(C(=O)c1ccc(NC(=O)c3ccccc3-c3ccccc3)cc1)c1ccccc1-2
60 to 70	CC1(C)C=Cc2cc(C(=O)NCCO)ccc2O1
214 to 218	CC(C)N1C(=S)NC(c2ccccc2)c2cc3c(cc21)OCO3 (stereo not given)
151 to 153	c1ccc2c(c1)nc1n2CCC(CN2CCNCC2)S1 (stereo not given)

melting point [°C]	SMILES
201 to 203	O=c1c(CCCl)n[nH]c2ccccc12
169 to 171	CN1CC2(OCCO2)c2ccc3ccccc3c2S1(=O)=O
69 to 71	C=C(Br)Cc1cccs1
225 to 227	CCc1nn(Cc2ccccn2)c(C(N)=O)c1NC(=O)c1cc(S(C)(=O)=O)ccc1OCC(C)C
216 to 217	O=S(=O)(Nc1nnc(Cl)cc1OCc1cccnc1)c1cccc(Cl)c1Cl
82	O=S(c1ccccc1)c1ccc(Cc2csc(Br)n2)cc1 (stereo not given)
149 to 151	CCOC(=O)Cn1c2cccccc-2c(C#N)c1=O
152 to 154	O=Cc1cn(-c2ccc(F)cc2)c2ccc(Cl)cc12
150 to 152	COc1ccc(C2=NN(C3CCN(S(=O)(=O)c4cccc(C)c4)CC3)C(=O)C(C)(C)C2)cc1OC
258	Cc1c(Cl)cc(C(C)(C)C)c(O)c1-c1nc2cc(C#N)ccc2[nH]1
95 to 96	CCCCCCCNC(=S)N(C)c1cccc(-c2ccc(CCC(=O)O)cc2)c1
103 to 105	COc1ccc(C(C#Cc2cnc(N)nc2)Cc2nc(C)co2)cc1OC1CCCC1 (racemic)
208 to 210	Cc1ccnc(Sc2nc(C)c(CC(=O)O)s2)c1C(=O)O
114 to 115	CCOc1nn(Cc2ccnc(OCc3nc(-c4ccccc4)oc3C)c2)cc1CCC(=O)O
62 to 63	CCOC(=O)c1cc(O)cc(OCC)c1
167 to 168	CCOC(=O)c1cc2c(nc(C)n2C)c2c1CCC1(Cc3ccccc3C1)N2
103	O=c1ccc2ccc(OCCCCCc3ccccc3)cc2o1
108 to 110	CCCc1c(OCCOc2ccccc2C(=O)O)ccc(C(C)=O)c1O
190 to 202	CCOC(=O)c1[nH]cc2c1NC1=C(C(=O)CCC1)C2c1ccc(Sc2nc3cccnc3[nH]2)o1 (stereo not given)
> 360	CCn1c(=O)c2nc(-c3ccc(/C=C/C(=O)O)cc3)[nH]c2n(CC)c1=O
218 to 220	COC(=O)C1=C(C(=O)OC)C(N)C2=C(c3cc4ccccc4s3)N=NC2=N1 (stereo not given)
192 to 193	N#Cc1ccc(NC(=O)c2ccc(-n3nc(C(F)(F)F)cc3C(F)(F)F)cc2)cc1
139 to 140	Cc1cc(-c2nnnn2C2CC2)ccc1N

melting point [°C]	SMILES
79 to 82	CCCCn1cnnc1SCC(=O)c1ccc(OC)cc1
102 to 104	CC(=O)Nc1ccnn1-c1c(F)c(F)c(C(F)(F)F)c(F)c1F
94 to 96	Nc1ccc2c(c1)C(=O)N(CCO)CO2
213 to 214	C[C@H](O)C(=O)Nc1c(C(=O)c2cc(CO)co2)[nH]c2cc(Cl)ccc12
188 to 191	CN(C)Cc1c(-c2cc(C(C)(C)C)c(O)c(C(C)(C)C)c2)nc2n1CCS2
90	O=C(CBr)C(O)(CBr)c1ccc(F)cc1 (stereo not given)
192	COc1ccc(N(C(=O)CN2C(=O)c3ccccc3C2=O)c2ccccc2)cc1
176 to 177	FC(F)(F)c1cccc(CCc2nnc(-c3ccnc4[nH]ccc34)o2)c1
259	CCNS(=O)(=O)c1cccc(NC(=O)c2cnn3c(C(F)F)cc(-c4ccc(C(F)(F)F)cc4)nc23)c1
164 to 167	COC(=O)CCc1ccc(Oc2ccc(-c3ccc(C#N)cc3)nn2)cc1
183 to 184	Nc1nc2[nH]c(CCCCCCc3ccc(C(=O)N[C@@H](CCC(=O)O)C(=O)O)s3)cc2c(=O)[nH]1
198 to 201	Nc1nc2c(ncn2COCCCOC(=O)c2ccccc2)c(=O)[nH]1
90 to 91	CCCCS(=O)c1ccc(C=O)nc1 (stereo not given)
200 to 202	COc1ccc(-c2nc3ccc(OC(F)(F)F)cc3[nH]2)cc1
174 to 176	CN=C(ON1C(=O)c2ccccc2C1=O)c1ccccc1
181 to 183	COCc1nc2c(C(=O)c3cccnc3Oc3cccc(Cl)c3)ccc(OC)c2[nH]1
267 to 269	O=c1c2c(CCc3ccncc3)n[nH]c2c2cccnc2n1-c1ccccc1
66 to 68	CCOc1c(NCCP(=O)(OCC)OCC)c(=O)c1=O
134 to 135	O=C(CCCO)Nc1cccc(-c2cccc3cc(Cc4cccc(C(F)(F)F)c4)oc23)c1
202 to 204	O=C(O)C(=O)c1ccc(OCCCn2c(=O)c3ccccc3c3ccccc32)cc1
84 to 86	CC(C)c1ccc(-n2nc(C(F)(F)F)cc2-c2ccc(S(C)(=O)=O)cc2)cc1Cl
193 to 194	COc1ccc(C2=NN(C3CCN(C(=O)CN4C(=O)c5ccccc5C4=O)CC3)C(=O)C(C)(C)C2)cc1OC
103	CN(C)c1ccc(C(=O)OC2CCN(Cc3ccccc3)CC2)cc1

melting point [°C]	SMILES
192 to 193	O=S(=O)(NC1CCN(C2CCCCC2)CC1)c1ccc(Nc2ccnc3cc(Cl)ccc23)cc1
> 260	O=C(O)c1c(Cc2cc3c(cc2Cl)OCO3)c(-c2cccs2)nn1CC1CCCC(C(=O)O)C1 (stereo not given)
197 to 199	COc1ccc(NC(=O)c2ccc(Cl)c(Cl)c2)cc1NCc1cccc(F)c1
101 to 104	CC1(C)N=C(SCc2cccc3cccnc23)N=C1SCc1cccc2cccnc12
223 to 225	COc1ccc2c(c1)c1c3c(c(-c4ccccc4OC)cc1n2CCCO)C(=O)NC3=O
189 to 191	O=C(CCCCc1ccccc1)Nc1ccc(C(=O)NO)cc1
163 to 164	Cc1ccc(-n2nc(C(C)(C)C)cc2NC(=O)c2cccc3cc(Oc4cc(Cl)ncn4)ccc23)cc1
113 to 114	COc1ccc2c(C)c(CCO)c(=O)oc2c1OC
183 to 186	CC[Si](C#CC1(CO)OC(n2ccc(=O)[nH]c2=O)C(O)C1O)(CC)CC (stereo not given)
162 to 163	CC(CCCC(C)(C)O)C1CCC2C3C=CC4=CC(=O)C5OC5C4(C)C3CCC12C (stereo not given)
326 to 328	O=C(Nc1ccc(-c2ncc(-c3ccc(NC(=O)C4CCCCCC4)cc3)[nH]2)cc1)c1cccnc1
120	CCOC(=O)c1cc(=O)c2ccc([N+](=O)[O-])c(C)c2o1
123 to 124	CCOC(=O)C=Cc1cc(N2C(=O)C3C4CC4CN3C2=O)c(F)cc1Cl (stereo not given)
245 to 247	CSc1nccn1CC(=O)NC1C(=O)N2C(C(=O)O)=C(COC(C)=O)CSC12 (stereo not given)
290 to 292	CCOC(=O)c1cc2c(O)nncc2nc1NC
138 to 140	CCCc1ccc(N2CCC(O)CC2)nn1
59 to 60	CC(C)CNC(=O)C(C)(C)c1ccc(-c2cccn2C)cc1
173 to 174	O=S(=O)(Nc1ccc2oncc2c1)c1cc(Cl)ccc1Cl
160 to 163	COc1ccc(N2C(=O)[C@H](O)[C@@H]2CC(C)C)cc1
197	CCNC(=O)NCC1=C(n2ccccc2=O)c2cc([N+](=O)[O-])ccc2OC1(C)C
165 to 166	CN(C)C(=O)N1CCc2ccc(S(=O)(=O)NC(=O)NCC3CCCC3)cc2CC1
250 to 255	O=C1Nc2cc(Cl)ccc2Oc2ccccc21

SMILES	melting point [°C]
Cn1nccc1COC(=O)Cc1ccccc1	80 to 83
COc1cccc(N2CCN(CCCO)CC2)c1	87 to 89
O=C1c2ccccc2-n2cnc(-c3noc(CCl)n3)c2[C@@H]2CCN12	205 to 207
CC(C)(O)CC(N)C1(c2ccc(Cl)cc2)CCC1 (stereo not given)	60 to 62
CC1(C)CCC(C)(C)c2cc(-c3cc(-c4ccc(C(=O)O)cc4)ccc3C(=O)O)ccc21	343
CN(c1ncccc1C#N)C1CCN(Cc2ccccc2)CC1	58 to 60
CN1C(=O)C(C(=O)c2ccc(Cl)cc2Cl)C(=O)N(C)C1=O	123 to 127
CC(=O)C1C(=O)N(CC2CC2)C(=O)N(c2ccccc2)C1=O (stereo not given)	91 to 95
O=C(O)C1CCC2CCCCC2N1 (stereo not given)	173 to 176
